According to US20250115598A1 (Anaxis Pharma Pty Ltd, priority 2021, published 2025):

Assays:
human RIPK1 = human RIPK1 (Homo sapiens (Human), UniProt Q13546); assay: KINOMEscan binding assay, human RIPK1; details: Table 21
Method: (§1) Binding affinity of the test compounds for human MLKL (full length), mouse MLKL (full length), human RIPK1 and human RIPK3 was determined using the KINOMEscan™ technology developed by DiscoverX (USA; http://www.discoverx.com). The assay was conducted according to manufacturer instructions.
(§2) Kinase assays. For most assays, kinase-tagged T7 phage strains were grown in parallel in 24-well blocks in an E. coli host derived from the BL21 strain. E. coli were grown to log-phase and infected with T7 phage from a frozen stock (multiplicity of infection=0.4) and incubated with shaking at 32° C. until lysis (90-150 minutes). The lysates were centrifuged (6,000×g) and filtered (0.2 μm) to remove cell debris. The remaining kinases were produced in HEK-293 cells and subsequently tagged with DNA for qPCR detection. […] The liganded beads were blocked with excess biotin and washed with blocking buffer (SeaBlock (Pierce), 1% BSA, 0.05% Tween 20, 1 mM DTT) to remove unbound ligand and to reduce non-specific phage binding. […] All reactions were performed in polypropylene 384-well plates in a final volume of 20 μL. […] The kinase concentration in the eluates was measured by qPCR.
(§3) An 11-point 3-fold serial dilution of each test compound was prepared in 100% DMSO at 100× final test concentration and subsequently diluted to 1× in the assay (final DMSO concentration=1%). Most Kos were determined using a compound top concentration=30,000 nM.
(§4) KD for each test compound was calculated with a standard dose-response curve using the Hill equation (equation (1)): […]
(§5) The Hill Slope was set to −1.
(§6) Curves were fitted using a non-linear least square fit with the Levenberg-Marquardt algorithm.

human RIPK3 = human RIPK3 (Homo sapiens (Human), UniProt Q9Y572); assay: KINOMEscan binding assay, human RIPK3; details: Table 21
Method: as §1, §2, §3, §4, §5, §6

Sequence of human RIPK3 (Q9Y572 whole entry): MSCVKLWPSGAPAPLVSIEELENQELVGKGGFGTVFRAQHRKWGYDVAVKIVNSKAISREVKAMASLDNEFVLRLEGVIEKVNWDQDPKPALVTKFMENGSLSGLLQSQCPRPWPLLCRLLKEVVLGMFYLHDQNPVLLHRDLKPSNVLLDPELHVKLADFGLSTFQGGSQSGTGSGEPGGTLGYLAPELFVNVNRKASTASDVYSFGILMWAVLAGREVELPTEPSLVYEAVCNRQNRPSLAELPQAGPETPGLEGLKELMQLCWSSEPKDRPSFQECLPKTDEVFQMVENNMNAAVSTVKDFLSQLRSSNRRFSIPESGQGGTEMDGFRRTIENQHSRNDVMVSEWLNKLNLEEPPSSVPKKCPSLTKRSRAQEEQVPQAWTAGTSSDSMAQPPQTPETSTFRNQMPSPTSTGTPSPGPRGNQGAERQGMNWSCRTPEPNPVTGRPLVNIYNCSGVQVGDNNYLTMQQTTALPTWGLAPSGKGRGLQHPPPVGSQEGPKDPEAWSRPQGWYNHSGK
Sequence of human RIPK1 (Q13546 whole entry): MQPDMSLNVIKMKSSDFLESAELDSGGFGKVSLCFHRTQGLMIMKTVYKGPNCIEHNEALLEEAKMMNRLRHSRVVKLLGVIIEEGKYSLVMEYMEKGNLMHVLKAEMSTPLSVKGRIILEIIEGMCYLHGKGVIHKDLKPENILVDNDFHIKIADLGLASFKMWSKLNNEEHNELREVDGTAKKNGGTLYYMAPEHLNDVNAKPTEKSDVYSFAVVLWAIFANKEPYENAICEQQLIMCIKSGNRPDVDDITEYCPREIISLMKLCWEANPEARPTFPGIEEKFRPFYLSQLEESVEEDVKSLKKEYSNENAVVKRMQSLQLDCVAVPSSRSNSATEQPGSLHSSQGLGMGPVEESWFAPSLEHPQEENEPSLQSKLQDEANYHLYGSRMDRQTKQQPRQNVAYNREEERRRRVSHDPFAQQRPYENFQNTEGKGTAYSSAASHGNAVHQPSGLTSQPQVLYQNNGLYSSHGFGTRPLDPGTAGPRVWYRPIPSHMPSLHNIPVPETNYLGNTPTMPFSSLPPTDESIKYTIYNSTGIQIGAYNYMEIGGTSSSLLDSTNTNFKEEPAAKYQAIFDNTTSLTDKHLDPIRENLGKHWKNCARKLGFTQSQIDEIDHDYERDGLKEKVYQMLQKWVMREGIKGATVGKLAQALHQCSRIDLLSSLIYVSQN

| SMILES | Kd (human RIPK1) | Kd (human RIPK3) |
| --- | --- | --- |
| C[C@H](Oc1cc(-c2nn(C)c3c(-c4ccccc4Cl)cnc(N)c23)ccc1NS(=O)(=O)C(F)F)c1ccc(F)cc1 [Compound 85, (S)-N-(4-(4-amino-7-(2-chlorophenyl)-1-methyl-1H-pyrazolo[4,3-c]pyridin-3-yl)-2-(1-(4-fluorophenyl)ethoxy)phenyl)-1,1-difluoromethanesulfonamide] | > 10 µM | > 10 µM |
| C[C@H](Oc1cc(-c2nn(C)c3c(-c4cnn5c4CN(C)CC5)cnc(N)c23)ccc1NS(=O)(=O)C(F)F)c1ccc(F)cc1 [Compound 91, (S)—N-(4-(4-amino-1-methyl-7-(5-methyl-4,5,6,7-tetrahydropyrazolo[1,5-a]pyrazin-3-yl)-1H-pyrazolo[4,3-c]pyridin-3-yl)-2-(1-(4-fluorophenyl)ethoxy)phenyl)-1,1-difluoromethanesulfonamide] | > 10 µM | > 10 µM |
| C[C@H](Oc1cc(-c2nn(C)c3c(-c4cnn(C5CCOCC5)c4)cnc(N)c23)ccc1NS(=O)(=O)C(F)F)c1ccccc1F [Compound 118, (S)-N-(4-(4-amino-1-methyl-7-(1-(tetrahydro-2H-pyran-4-yl)-1H-pyrazol-4-yl)-1H-pyrazolo[4,3-c]pyridin-3-yl)-2-(1-(2-fluoro-phenyl)ethoxy)phenyl)-1,1-difluoromethane-sulfonamide] | > 10 µM | > 10 µM |
| C[C@H](Oc1cc(-c2nn(C)c3c(-c4ccnc(N(C)C)c4)cnc(N)c23)ccc1NS(=O)(=O)C(F)F)c1ccc(F)cc1 [Compound 49, (S)-N-(4-(4-amino-7-(2-(dimethylamino)pyridin-4-yl)-1-methyl-1H-pyrazolo[4,3-c]pyridin-3-yl)-2-(1-(4-fluorophenyl)ethoxy)phenyl)-1,1-difluoromethanesulfonamide] | > 10 µM | > 10 µM |
| C[C@H](Oc1cc(-c2nn(C)c3c(-c4cnn(C5CCC(F)(F)CC5)c4)cnc(N)c23)ccc1NS(=O)(=O)C(F)F)c1ccc(F)cc1 [Compound 146, (S)-N-(4-(4-amino-7-(1-(4,4-difluorocyclohexyl)-1H-pyrazol-4-yl)-1-methyl-1H-pyrazolo[4,3-c]pyridin-3-yl)-2-(1-(4-fluorophenyl)ethoxy)phenyl)-1,1-difluoromethanesulfonamide] | > 10 µM | > 10 µM |
| C[C@H](Oc1cc(-c2nn(C)c3c(-c4ccc(Cl)cc4)cnc(N)c23)ccc1NS(=O)(=O)C(F)F)c1ccc(F)cc1 [Compound 87, (S)-N-(4-(4-amino-7-(4-chlorophenyl)-1-methyl-1H-pyrazolo[4,3-c]pyridin-3-yl)-2-(1-(4-fluorophenyl)ethoxy)phenyl)-1,1-difluoromethanesulfonamide] | > 10 µM | > 10 µM |
| C[C@H](Oc1cc(-c2nn(C)c3c(-c4cc(C#N)n(C)c4)cnc(N)c23)ccc1NS(=O)(=O)C(F)F)c1ccc(F)cc1 [Compound 83, (S)-N-(4-(4-amino-7-(5-cyano-1-methyl-1H-pyrrol-3-yl)-1-methyl-1H-pyrazolo[4,3-c]pyridin-3-yl)-2-(1-(4-fluorophenyl)ethoxy)phenyl)-1,1-difluoromethanesulfonamide] | > 10 µM | > 10 µM |
| C[C@H](Oc1cc(-c2nn(C)c3c(-c4cnn(C5CCCC5)c4)cnc(N)c23)ccc1NS(=O)(=O)C(F)F)c1ccc(F)cc1 [Compound 30, (S)-N-(4-(4-amino-7-(1-cyclopentyl-1H-pyrazol-4-yl)-1-methyl-1H-pyrazolo[4,3-c]pyridin-3-yl)-2-(1-(4-fluorophenyl)ethoxy)phenyl)-1,1-difluoromethanesulfonamide] | > 10 µM | 0.1 to 10 µM |
| Cc1c(-c2cnc(N)c3c(-c4ccc(NS(=O)(=O)C(F)F)c(O[C@@H](C)c5ccc(F)cc5)c4)nn(C)c23)cnn1C1CCN(C)C(C)(C)C1 (stereo partly drawn) [Compound 157, N-(4-(4-amino-1-methyl-7-(5-methyl-1-(1,2,2-trimethylpiperidin-4-yl)-1H-pyrazol-4-yl)-1H-pyrazolo[4,3-c]pyridin-3-yl)-2-((S)-1-(4-fluorophenyl)ethoxy)phenyl)-1,1-difluoromethanesulfonamide] | > 10 µM | > 10 µM |
| C[C@H](Oc1cc(-c2nn(C)c3c(-c4cccc(Cl)c4)cnc(N)c23)ccc1NS(=O)(=O)C(F)F)c1ccc(F)cc1 [Compound 84, (S)-N-(4-(4-amino-7-(3-chlorophenyl)-1-methyl-1H-pyrazolo[4,3-c]pyridin-3-yl)-2-(1-(4-fluorophenyl)ethoxy)phenyl)-1,1-difluoromethanesulfonamide] | > 10 µM | > 10 µM |
| Cn1nc(-c2ccc(NS(=O)(=O)C(F)F)c(OC3(c4ccc(F)cc4)CC3)c2)c2c(N)ncc(-c3cnn(C4CCOCC4)c3)c21 [Compound 140, N-(4-(4-amino-1-methyl-7-(1-(tetrahydro-2H-pyran-4-yl)-1H-pyrazol-4-yl)-1H-pyrazolo[4,3-c]pyridin-3-yl)-2-(1-(4-fluorophenyl)cyclopropoxy)phenyl)-1,1-difluoromethane-sulfonamide] | > 10 µM | > 10 µM |
| CCS(=O)(=O)Nc1ccc(-c2coc3c(-c4cnn(CCO)c4)cnc(N)c23)cc1OCc1ccc(F)cc1 [Compound 4, N-(4-(4-amino-7-(1-(2-hydroxyethyl)-1H-pyrazol-4-yl)furo[3,2-c]pyridin-3-yl)-2-((4-fluorobenzyl)oxy)phe-nyl)ethanesulfonamide] | > 10 µM | > 10 µM |
| C[C@H](Oc1cc(-c2nn(C)c3c(C4CCN(C)CC4)cnc(N)c23)ccc1NS(=O)(=O)C(F)F)c1ccc(F)cc1 [Compound 42, (S)—N-(4-(4-amino-1-methyl-7-(1-methylpiperidin-4-yl)-1H-pyrazolo[4,3-c]pyridin-3-yl)-2-(1-(4-fluorophenyl)ethoxy)phenyl)-1,1-difluoromethanesulfonamide] | > 10 µM | > 10 µM |
| COc1cc(-c2cnc(N)c3c(-c4ccc(NS(=O)(=O)C(F)F)c(O[C@@H](C)c5ccc(F)cc5)c4)nn(C)c23)ccn1 [Compound 27, (S)-N-(4-(4-amino-7-(2-methoxypyridin-4-yl)-1-methyl-1H-pyrazolo[4,3-c]pyridin-3-yl)-2-(1-(4-fluorophenyl)ethoxy)phenyl)-1,1-difluoromethanesulfonamide] | > 10 µM | > 10 µM |
| C[C@H](Oc1cc(-c2nn(C)c3c(-c4cnc(N5CCCC5)nc4)cnc(N)c23)ccc1NS(=O)(=O)C(F)F)c1ccc(F)cc1 [Compound 114, (S)-N-(4-(4-amino-1-methyl-7-(2-(pyrrolidin-1-yl)pyrimidin-5-yl)-1H-pyrazolo[4,3-c]pyridin-3-yl)-2-(1-(4-fluorophenyl)ethoxy)phenyl)-1,1-difluoromethanesulfonamide] | > 10 µM | > 10 µM |
| C[C@H](Oc1cc(-c2nn(C)c3c(-c4cnn5c4CNCC5)cnc(N)c23)ccc1NS(=O)(=O)C(F)F)c1ccc(F)cc1 [Compound 90, (S)—N-(4-(4-amino-1-methyl-7-(4,5,6,7-tetrahydropyrazolo[1,5-a]pyrazin-3-yl)-1H-pyrazolo[4,3-c]pyridin-3-yl)-2-(1-(4-fluorophenyl)ethoxy)phenyl)-1,1-difluoromethanesulfonamide] | > 10 µM | > 10 µM |
| Nc1ncc(-c2cnn(C3CCOCC3)c2)c2occ(-c3ccc(NS(=O)(=O)CC(F)(F)F)c(OCc4ccc(F)cc4)c3)c12 [Compound 11, N-(4-(4-amino-7-(1-(tetrahydro-2H-pyran-4-yl)-1H-pyrazol-4-yl)furo[3,2-c]pyridin-3-yl)-2-((4-fluorobenzyl)oxy)phenyl)-2,2,2-trifluoroethane-1-sulfonamide] | > 10 µM | > 10 µM |
| Cn1nc(-c2ccc(NS(=O)(=O)C(F)F)c(OCc3ccc(F)cc3)c2)c2c(N)nccc21 [Compound 10, N-(4-{4-amino-1-methyl-1H-pyrazolo[4,3-c]pyridin-3-yl}-2-[(4-fluorophenyl)methoxy]phenyl)-1,1-difluoromethanesulfonamide] | > 10 µM | > 10 µM |
| Nc1n[nH]c2ccnc(-c3ccc(NS(=O)(=O)CC(F)(F)F)c(OCc4ccc(F)cc4)c3)c12 [Compound 65, N-(4-(3-amino-1H-pyrazolo[4,3-c]pyridin-4-yl)-2-((4-fluorophenyl)methoxy)phenyl)-2,2,2-trifluoroethane-1-sulfonamide] | > 10 µM | > 10 µM |
| C[C@H](Oc1cc(-c2nn(C)c3c(-c4cnn(C(F)(F)F)c4)cnc(N)c23)ccc1NS(=O)(=O)C(F)F)c1ccc(F)cc1 [Compound 134, (S)-N-(4-(4-amino-1-methyl-7-(1-(trifluoromethyl)-1H-pyrazol-4-yl)-1H-pyrazolo[4,3-c]pyridin-3-yl)-2-(1-(4-fluorophenyl)ethoxy)phenyl)-1,1-difluoromethanesulfonamide] | > 10 µM | > 10 µM |
| C[C@H](Oc1cc(-c2nn(C)c3c(-c4cnn(C5CCOCC5)c4)cnc(N)c23)ccc1NS(=O)(=O)Cc1ccccc1)c1ccc(F)cc1 [Compound 125, (S)-N-(4-(4-amino-1-methyl-7-(1-(tetra-hydro-2H-pyran-4-yl)-1H-pyrazol-4-yl)-1H-pyrazolo[4,3-c]pyridin-3-yl)-2-(1-(4-fluoro-phenyl)eth-oxy)phenyl)-1-phenylmethane-sulfonamide] | > 10 µM | > 10 µM |
